Source: ChEMBL document CHEMBL2311426, “Synthesis and antibacterial activity of novel water-soluble nocathiacin analogs” (Bioorg Med Chem Lett, 2013)
Converted amounts (≈) assume the structure as drawn.

Experiments:
[1] = Aqueous solubility of the compound in water containing 5% dextrose at pH 4; type: physicochemical
Staphylococcus aureus = experiment: Antibacterial activity against Staphylococcus aureus MB2865 by turbidity method; type: functional; settings: read-out: MIC100
Enterococcus faecalis = experiment: Antibacterial activity against Enterococcus faecalis C21560 by turbidity method; type: functional; settings: read-out: MIC100
Streptococcus pneumoniae = experiment: Antibacterial activity against Streptococcus pneumoniae CL2883 by turbidity method; type: functional; settings: read-out: MIC100

CO/C(C)=C1/NC(=O)[C@H]([C@@H](C)O)NC(=O)c2csc(n2)-c2cc(O)c(-c3nc(CNC(=O)NCCN(C)C)cs3)nc2-c2csc(n2)[C@@H]2COC(=O)c3c4c5c(cccc5n3O)COC(=O)[C@@H](O[C@H]3C[C@](C)(O)[C@H](N(C)C)[C@H](C)O3)[C@@H](OC4)[C@H](NC(=O)c3csc1n3)c1nc(cs1)C(=O)N2.O=C(O)C(F)(F)F
solubility [1]: > 10000 µg/mL

CO/C(C)=C1/NC(=O)[C@H]([C@@H](C)O)NC(=O)c2csc(n2)-c2cc(O)c(-c3nc(CNC(=O)CCN4CCOCC4)cs3)nc2-c2csc(n2)[C@@H]2COC(=O)c3c4c5c(cccc5n3O)COC(=O)[C@@H](O[C@H]3C[C@](C)(O)[C@H](N(C)C)[C@H](C)O3)[C@@H](OC4)[C@H](NC(=O)c3csc1n3)c1nc(cs1)C(=O)N2.O=C(O)C(F)(F)F
solubility [1]: > 10000 µg/mL

CO/C(C)=C1/NC(=O)[C@H]([C@@H](C)O)NC(=O)c2csc(n2)-c2cc(O)c(-c3nc(CNC(=O)CN4CCN(C)CC4)cs3)nc2-c2csc(n2)[C@@H]2COC(=O)c3c4c5c(cccc5n3O)COC(=O)[C@@H](O[C@H]3C[C@](C)(O)[C@H](N(C)C)[C@H](C)O3)[C@@H](OC4)[C@H](NC(=O)c3csc1n3)c1nc(cs1)C(=O)N2.O=C(O)C(F)(F)F
solubility [1]: > 10000 µg/mL

CO/C(C)=C1/NC(=O)[C@H]([C@@H](C)O)NC(=O)c2csc(n2)-c2cc(O)c(-c3nc(CNC(=O)CN4CCOCC4)cs3)nc2-c2csc(n2)[C@@H]2COC(=O)c3c4c5c(cccc5n3O)COC(=O)[C@@H](O[C@H]3C[C@](C)(O)[C@H](N(C)C)[C@H](C)O3)[C@@H](OC4)[C@H](NC(=O)c3csc1n3)c1nc(cs1)C(=O)N2.O=C(O)C(F)(F)F
solubility [1]: > 10000 µg/mL

CO/C(C)=C1/NC(=O)[C@H]([C@@H](C)O)NC(=O)c2csc(n2)-c2cc(O)c(-c3nc(CNC(=O)CN(C)C)cs3)nc2-c2csc(n2)[C@@H]2COC(=O)c3c4c5c(cccc5n3O)COC(=O)[C@@H](O[C@H]3C[C@](C)(O)[C@H](N(C)C)[C@H](C)O3)[C@@H](OC4)[C@H](NC(=O)c3csc1n3)c1nc(cs1)C(=O)N2.O=C(O)C(F)(F)F
solubility [1]: > 10000 µg/mL

CO/C(C)=C1/NC(=O)[C@H]([C@@H](C)O)NC(=O)c2csc(n2)-c2cc(O)c(-c3nc(CNCc4cncnc4)cs3)nc2-c2csc(n2)[C@@H]2COC(=O)c3c4c5c(cccc5n3O)COC(=O)[C@@H](O[C@H]3C[C@](C)(O)[C@H](N(C)C)[C@H](C)O3)[C@@H](OC4)[C@H](NC(=O)c3csc1n3)c1nc(cs1)C(=O)N2.O=C(O)C(F)(F)F
solubility [1]: > 10000 µg/mL

CO/C(C)=C1/NC(=O)[C@H]([C@@H](C)O)NC(=O)c2csc(n2)-c2cc(O)c(-c3nc(CN(CCO)CCO)cs3)nc2-c2csc(n2)[C@@H]2COC(=O)c3c4c5c(cccc5n3O)COC(=O)[C@@H](O[C@H]3C[C@](C)(O)[C@H](N(C)C)[C@H](C)O3)[C@@H](OC4)[C@H](NC(=O)c3csc1n3)c1nc(cs1)C(=O)N2.O=C(O)C(F)(F)F
solubility [1]: > 10000 µg/mL

CO/C(C)=C1/NC(=O)[C@H]([C@@H](C)O)NC(=O)c2csc(n2)-c2cc(O)c(-c3nc(CNCC(C)(C)N4CCCCC4)cs3)nc2-c2csc(n2)[C@@H]2COC(=O)c3c4c5c(cccc5n3O)COC(=O)[C@@H](O[C@H]3C[C@](C)(O)[C@H](N(C)C)[C@H](C)O3)[C@@H](OC4)[C@H](NC(=O)c3csc1n3)c1nc(cs1)C(=O)N2.O=C(O)C(F)(F)F
solubility [1]: > 10000 µg/mL

CO/C(C)=C1/NC(=O)[C@H]([C@@H](C)O)NC(=O)c2csc(n2)-c2cc(O)c(-c3nc(CNCCO)cs3)nc2-c2csc(n2)[C@@H]2COC(=O)c3c4c5c(cccc5n3O)COC(=O)[C@@H](O[C@H]3C[C@](C)(O)[C@H](N(C)C)[C@H](C)O3)[C@@H](OC4)[C@H](NC(=O)c3csc1n3)c1nc(cs1)C(=O)N2.O=C(O)C(F)(F)F
solubility [1]: > 10000 µg/mL

CO/C(C)=C1/NC(=O)[C@H]([C@@H](C)O)NC(=O)c2csc(n2)-c2cc(O)c(-c3nc(CNCC(O)CO)cs3)nc2-c2csc(n2)[C@@H]2COC(=O)c3c4c5c(cccc5n3O)COC(=O)[C@@H](O[C@H]3C[C@](C)(O)[C@H](N(C)C)[C@H](C)O3)[C@@H](OC4)[C@H](NC(=O)c3csc1n3)c1nc(cs1)C(=O)N2.O=C(O)C(F)(F)F (stereo not given in full)
solubility [1]: > 10000 µg/mL

CO/C(C)=C1/NC(=O)[C@H]([C@@H](C)O)NC(=O)c2csc(n2)-c2cc(O)c(-c3nc(CNCC[C@H](O)[C@H](O)CO)cs3)nc2-c2csc(n2)[C@@H]2COC(=O)c3c4c5c(cccc5n3O)COC(=O)[C@@H](O[C@H]3C[C@](C)(O)[C@H](N(C)C)[C@H](C)O3)[C@@H](OC4)[C@H](NC(=O)c3csc1n3)c1nc(cs1)C(=O)N2.O=C(O)C(F)(F)F
solubility [1]: > 10000 µg/mL

CO/C(C)=C1/NC(=O)[C@H]([C@@H](C)O)NC(=O)c2csc(n2)-c2cc(O)c(-c3nc(CN(C)C)cs3)nc2-c2csc(n2)[C@@H]2COC(=O)c3c4c5c(cccc5n3O)COC(=O)[C@@H](O[C@H]3C[C@](C)(O)[C@H](N(C)C)[C@H](C)O3)[C@@H](OC4)[C@H](NC(=O)c3csc1n3)c1nc(cs1)C(=O)N2.O=C(O)C(F)(F)F
solubility [1]: > 10000 µg/mL

CO/C(C)=C1/NC(=O)[C@H]([C@@H](C)O)NC(=O)c2csc(n2)-c2cc(O)c(-c3nc(CN)cs3)nc2-c2csc(n2)[C@@H]2COC(=O)c3c4c5c(cccc5n3O)COC(=O)[C@@H](O[C@H]3C[C@](C)(O)[C@H](N(C)C)[C@H](C)O3)[C@@H](OC4)[C@H](NC(=O)c3csc1n3)c1nc(cs1)C(=O)N2.O=C(O)C(F)(F)F
solubility [1]: > 10000 µg/mL

CO/C(C)=C1/NC(=O)[C@H]([C@@H](C)O)NC(=O)c2csc(n2)-c2cc(O)c(-c3nc(CNC(=O)NCCc4cnc[nH]4)cs3)nc2-c2csc(n2)[C@@H]2COC(=O)c3c4c5c(cccc5n3O)COC(=O)[C@@H](O[C@H]3C[C@](C)(O)[C@H](N(C)C)[C@H](C)O3)[C@@H](OC4)[C@H](NC(=O)c3csc1n3)c1nc(cs1)C(=O)N2
MIC (Staphylococcus aureus): 0.125 µg/mL (≈ 0.0838 µM) | MIC (Enterococcus faecalis): 0.5 µg/mL (≈ 0.335 µM)

CO/C(C)=C1/NC(=O)[C@H]([C@@H](C)O)NC(=O)c2csc(n2)-c2cc(O)c(-c3nc(CNC(=O)NCCN(C)C)cs3)nc2-c2csc(n2)[C@@H]2COC(=O)c3c4c5c(cccc5n3O)COC(=O)[C@@H](O[C@H]3C[C@](C)(O)[C@H](N(C)C)[C@H](C)O3)[C@@H](OC4)[C@H](NC(=O)c3csc1n3)c1nc(cs1)C(=O)N2
MIC (Staphylococcus aureus): 0.125 µg/mL (≈ 0.0851 µM) | MIC (Enterococcus faecalis): 0.5 µg/mL (≈ 0.34 µM)

CO/C(C)=C1/NC(=O)[C@H]([C@@H](C)O)NC(=O)c2csc(n2)-c2cc(O)c(-c3nc(CNC(=O)NCC(O)CO)cs3)nc2-c2csc(n2)[C@@H]2COC(=O)c3c4c5c(cccc5n3O)COC(=O)[C@@H](O[C@H]3C[C@](C)(O)[C@H](N(C)C)[C@H](C)O3)[C@@H](OC4)[C@H](NC(=O)c3csc1n3)c1nc(cs1)C(=O)N2 (stereo not given in full)
MIC (Streptococcus pneumoniae): 0.015 µg/mL (≈ 0.0102 µM) | MIC (Staphylococcus aureus): 0.06 µg/mL (≈ 0.0408 µM) | MIC (Enterococcus faecalis): 0.5 µg/mL (≈ 0.34 µM)

CO/C(C)=C1/NC(=O)[C@H]([C@@H](C)O)NC(=O)c2csc(n2)-c2cc(O)c(-c3nc(CNC(=O)C(N)=O)cs3)nc2-c2csc(n2)[C@@H]2COC(=O)c3c4c5c(cccc5n3O)COC(=O)[C@@H](O[C@H]3C[C@](C)(O)[C@H](N(C)C)[C@H](C)O3)[C@@H](OC4)[C@H](NC(=O)c3csc1n3)c1nc(cs1)C(=O)N2
MIC (Streptococcus pneumoniae): 0.00457 µg/mL (≈ 0.00321 µM) | MIC (Staphylococcus aureus): 0.0075 µg/mL (≈ 0.00526 µM) | MIC (Enterococcus faecalis): 0.0075 µg/mL (≈ 0.00526 µM)

CO/C(C)=C1/NC(=O)[C@H]([C@@H](C)O)NC(=O)c2csc(n2)-c2cc(O)c(-c3nc(CNC(=O)C(NC(N)=O)c4ccc(O)cc4)cs3)nc2-c2csc(n2)[C@@H]2COC(=O)c3c4c5c(cccc5n3O)COC(=O)[C@@H](O[C@H]3C[C@](C)(O)[C@H](N(C)C)[C@H](C)O3)[C@@H](OC4)[C@H](NC(=O)c3csc1n3)c1nc(cs1)C(=O)N2 (stereo not given in full)
MIC (Staphylococcus aureus): > 1 µg/mL | MIC (Enterococcus faecalis): > 1 µg/mL

CO/C(C)=C1/NC(=O)[C@H]([C@@H](C)O)NC(=O)c2csc(n2)-c2cc(O)c(-c3nc(CN(CCO)CCO)cs3)nc2-c2csc(n2)[C@@H]2COC(=O)c3c4c5c(cccc5n3O)COC(=O)[C@@H](O[C@H]3C[C@](C)(O)[C@H](N(C)C)[C@H](C)O3)[C@@H](OC4)[C@H](NC(=O)c3csc1n3)c1nc(cs1)C(=O)N2
MIC (Streptococcus pneumoniae): 0.0075 µg/mL (≈ 0.0052 µM) | MIC (Staphylococcus aureus): 0.06 µg/mL (≈ 0.0416 µM) | MIC (Enterococcus faecalis): 0.12 µg/mL (≈ 0.0832 µM)

CO/C(C)=C1/NC(=O)[C@H]([C@@H](C)O)NC(=O)c2csc(n2)-c2cc(O)c(-c3nc(CNCC(C)(C)N4CCOCC4)cs3)nc2-c2csc(n2)[C@@H]2COC(=O)c3c4c5c(cccc5n3O)COC(=O)[C@@H](O[C@H]3C[C@](C)(O)[C@H](N(C)C)[C@H](C)O3)[C@@H](OC4)[C@H](NC(=O)c3csc1n3)c1nc(cs1)C(=O)N2
MIC (Streptococcus pneumoniae): 0.00046 µg/mL (≈ 0.000308 µM) | MIC (Staphylococcus aureus): 0.06 µg/mL (≈ 0.0401 µM) | MIC (Enterococcus faecalis): 0.03 µg/mL (≈ 0.0201 µM)

CO/C(C)=C1/NC(=O)[C@H]([C@@H](C)O)NC(=O)c2csc(n2)-c2cc(O)c(-c3nc(CNCC(O)CO)cs3)nc2-c2csc(n2)[C@@H]2COC(=O)c3c4c5c(cccc5n3O)COC(=O)[C@@H](O[C@H]3C[C@](C)(O)[C@H](N(C)C)[C@H](C)O3)[C@@H](OC4)[C@H](NC(=O)c3csc1n3)c1nc(cs1)C(=O)N2 (stereo not given in full)
MIC (Streptococcus pneumoniae): 0.0075 µg/mL (≈ 0.00525 µM) | MIC (Staphylococcus aureus): 0.06 µg/mL (≈ 0.042 µM) | MIC (Enterococcus faecalis): 0.25 µg/mL (≈ 0.175 µM)

CO/C(C)=C1/NC(=O)[C@H]([C@@H](C)O)NC(=O)c2csc(n2)-c2cc(O)c(-c3nc(CNCC[C@H](O)[C@H](O)CO)cs3)nc2-c2csc(n2)[C@@H]2COC(=O)c3c4c5c(cccc5n3O)COC(=O)[C@@H](O[C@H]3C[C@](C)(O)[C@H](N(C)C)[C@H](C)O3)[C@@H](OC4)[C@H](NC(=O)c3csc1n3)c1nc(cs1)C(=O)N2
MIC (Streptococcus pneumoniae): 0.015 µg/mL (≈ 0.0102 µM) | MIC (Staphylococcus aureus): 0.125 µg/mL (≈ 0.0849 µM) | MIC (Enterococcus faecalis): 1 µg/mL (≈ 0.679 µM)

C=C(NC(=O)c1csc(-c2nc3c(cc2O)-c2nc(cs2)C(=O)N[C@@H]([C@@H](C)O)C(=O)N/C(=C(\C)OC)c2nc(cs2)C(=O)N[C@@H]2c4nc(cs4)C(=O)N[C@@H](COC(=O)c4c5c6c(cccc6n4O)COC(=O)[C@@H](O[C@H]4C[C@](C)(O)[C@H](N(C)C)[C@H](C)O4)[C@H]2OC5)c2nc-3cs2)n1)C(N)=O [MJ347-81F4 A]
MIC (Streptococcus pneumoniae): 0.002 µg/mL (≈ 0.00139 µM) | MIC (Staphylococcus aureus): 0.007 µg/mL (≈ 0.00487 µM) | MIC (Enterococcus faecalis): 0.03 µg/mL (≈ 0.0209 µM)
